Source: patent US20110046130A1, “TETRAHYDRONAPHTHYRIDINES AND AZA DERIVATIVES THEREOF AS HISTAMINE H3 RECEPTOR ANTAGONISTS” (Evotec AG, priority 2008, published 2011)

Biological target: T1, human H3 receptors (Homo sapiens, UniProt Q9Y5N1)
T1 construct: host or cells: CHO-K1
Experiment: cAMP quantification protocol for human H3 receptor testing
Type: cell-based
Details: inhibition of agonist-induced (100 nM histamine, 10 μM forskolin) decrease of intracellular cAMP; CHO-K1 cell line expressing human H3 receptors; read-out: Potency range (IC50 values)
Experimental: CHO-K1 cell line expressing human H3 receptors were purchased from Euroscreen (Gosselies, Belgium, Cat. no.: ES-392-C)
Human H3 receptor-expressing cell-lines were grown in Ham's F12 [Sigma, Cat. no. N6658], supplemented with 10% FBS [Sigma, Cat. no. F9665], 400 μg/ml G418 [Sigma, Cat. no. N1876] and 250 μg/ml Zeocin [Invitrogen, Cat. no. 46-0509]) according to the protocol provided by Euroscreen.
cAMP Quantification Protocol for Human H3 Receptor Testing
The assay measures the ability of test compounds to inhibit Histamine receptor agonist-induced decrease of intracellular free cAMP (receptor is Gi coupled).
Specifically, a cAMP quantification assay system from DiscoveRx (cAMP XS+; Cat. no. 90-0075) was used.
For the cAMP assay, confluent cells were detached from the culture vessels with 1× trypsin-EDTA solution (Sigma), and seeded into 384-well Costar plates (white, clear bottom, Cat. no. 3707) at a density of 10,000 cells per well. Cells were seeded in a volume of 50 μl in medium without antibiotics and incubated overnight in a humidified atmosphere with 5% CO2 at 37° C. The cAMP assay was performed according to the protocol provided by DiscoveRx.
The cell culture medium was removed and the cells washed once with PBS (50 μl per well). The plates were emptied by inversion and 7.5 μl/well of compound in PBS (containing 1 mM IBMX and 0.03% BSA) were added and incubated for 30 min at 37° C.
Subsequent 7.5 μl/well specific agonist solution was added and the plates for another 30 min incubated at 37° C.
The following agonist solution is used:
100 nM histamine, 10 μM forskolin in PBS (containing 1 mM IBMX and 0.03% BSA)
After the incubation with the agonist, 5 μl/well cAMP XS antibody solution was added followed by 20 μl/well Gal/EII/Lysis(1:5:19)+ED (1:1). The plates were incubated for one hour at room temperature and afterwards 20 μl/well EA reagent was added. The luminescence was developed for approximately three hours at room temperature and the plates were read out using a ‘BMG Novostar’ plate reader.
Test compounds were assayed at 8 concentrations in triplicate. Serial 10-fold dilutions in 100% DMSO were made at a 100-times higher concentration than the final concentration and then diluted with a 2 step protocol in assay buffer to reach the required assay concentrations and 1% DMSO.

T1 sequence (Q9Y5N1 whole entry): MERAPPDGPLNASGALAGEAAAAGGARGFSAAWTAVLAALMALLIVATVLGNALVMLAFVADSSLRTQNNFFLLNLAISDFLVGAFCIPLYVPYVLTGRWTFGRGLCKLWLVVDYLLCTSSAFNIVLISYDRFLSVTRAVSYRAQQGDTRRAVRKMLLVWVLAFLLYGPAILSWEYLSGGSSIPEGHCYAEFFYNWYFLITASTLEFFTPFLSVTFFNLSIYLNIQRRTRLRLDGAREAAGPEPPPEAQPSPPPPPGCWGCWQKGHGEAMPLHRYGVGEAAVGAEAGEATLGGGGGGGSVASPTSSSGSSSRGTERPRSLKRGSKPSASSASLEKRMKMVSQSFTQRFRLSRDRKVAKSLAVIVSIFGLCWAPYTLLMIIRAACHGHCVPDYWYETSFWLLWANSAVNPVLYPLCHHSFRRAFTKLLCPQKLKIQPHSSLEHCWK

`CC(C)N1CCC(N(C)c2ccc3c(n2)CCN2C(=O)CCCC32)CC1` (stereo not drawn) [Example 32, 3-{methyl[1-(1-methylethyl)piperidin-4-yl]amino}-5,6,9,10,11,11a-hexahydro-8H-pyrido[2,1-f][1,6]naphthyridin-8-one] and `CC(C)N1CCC(Oc2ccc3c(n2)CCN2C(=O)CCCC32)CC1` (stereo not drawn) [Example 15, 3-{[1-(1-methylethyl)piperidin-4-yl]oxy}-5,6,9,10,11,11a-hexahydro-8H-pyrido[2,1-f][1,6]naphthyridin-8-one] cannot be ordered by IC50: under 100 nM for the first, under 100 nM for the second.

`CN(c1nc2c(cc1C#N)C1CCCC(=O)N1CC2)C1CCN(C2CCC2)CC1` (stereo not drawn) [Example 31, 3-[(1-cyclobutylpiperidin-4-yl)(methyl)amino]-8-oxo-5,8,9,10,11,11a-hexahydro-6H-pyrido[2,1-f][1,6]naphthyridine-2-carbonitrile] and `N#Cc1cc2c(nc1OC1CCN(C3CCC3)CC1)CCN1C(=O)CCCC21` (stereo not drawn) [Example 29, 3-[(1-Cyclobutylpiperidin-4-yl)oxy]-8-oxo-5,8,9,10,11,11a-hexahydro-6H-pyrido[2,1-f][1,6]naphthyridine-2-carbonitrile] cannot be ordered by IC50: under 100 nM for the first, under 100 nM for the second.

Compared with `O=C1CCCC2c3ccc(OCCCCN4CCCCC4)nc3CCN12` (stereo not drawn) [Example 25, 3-(4-piperidin-1-ylbutoxy)-5,6,9,10,11,11a-hexahydro-8H-pyrido[2,1-f][1,6]naphthyridin-8-one], `O=C1CCCC2c3ccc(OCCCN4CCCCC4)nc3CCN12` (stereo not drawn) [Example 19, 3-(3-piperidin-1-ylpropoxy)-5,6,9,10,11,11a-hexahydro-8H-pyrido[2,1-f][1,6]naphthyridin-8-one] is lower in IC50: 100 to 500 nM for the first, under 100 nM for the second. The second is the more potent here.

First: CN1CCC(Oc2ccc3c(n2)CCN(C)C3)CC1 [Example 9, 6-Methyl-2-[(1-methylpiperidin-4-yl)oxy]-5,6,7,8-tetrahydro-1,6-naphthyridine]
Second: CC(C)N1CCC(Oc2ccc3c(n2)CCN(C)C3)CC1 [Example 8, 6-Methyl-2-{[1-(1-methylethyl)piperidin-4-yl]oxy}-5,6,7,8-tetrahydro-1,6-naphthyridine]
The IC50 of the first is higher: 500 to 5000 nM for the first, under 100 nM for the second.

`O=C1CCC2c3ccc(OC4CCN(C5CCC5)CC4)nc3CCN12` (stereo not drawn) [Example 27, 3-[(1-Cyclobutylpiperidin-4-yl)oxy]-5,9,10,10a-tetrahydropyrrolo[2,1-f][1,6]naphthyridin-8(6H)-one] and `O=C1CCC2c3ccc(OC4CCN(C5CCCC5)CC4)nc3CCN12` (stereo not drawn) [Example 28, 3-[(1-Cyclopentylpiperidin-4-yl)oxy]-5,9,10,10a-tetrahydropyrrolo[2,1-f][1,6]naphthyridin-8(6H)-one] cannot be ordered by IC50: under 100 nM for the first, under 100 nM for the second.

`CN1CCc2nc(OC3CCN(C4CCC4)CC3)ncc2C1` [Example 13, 2-[(1-Cyclobutylpiperidin-4-yl)oxy]-6-methyl-5,6,7,8-tetrahydropyrido[4,3-d]pyrimidine] and `CN1CCc2nc(OC3CCN(C4CCC4)CC3)ccc2C1` [Example 1, 2-[(1-Cyclobutylpiperidin-4-yl)oxy]-6-methyl-5,6,7,8-tetrahydro-1,6-naphthyridine] cannot be ordered by IC50: under 100 nM for the first, under 100 nM for the second.

First: CN1CCc2nc(O[C@H]3CCN(C4CCC4)C3)ccc2C1 [Example 6, 2-{[(3S)-1-Cyclobutylpyrrolidin-3-yl]oxy}-6-methyl-5,6,7,8-tetrahydro-1,6-naphthyridine]
Second: CN1CCc2nc(O[C@@H]3CCN(C4CCC4)C3)ccc2C1 [Example 5, 2-{[(3R)-1-Cyclobutylpyrrolidin-3-yl]oxy}-6-methyl-5,6,7,8-tetrahydro-1,6-naphthyridine]
The IC50 of the first is higher: 500 to 5000 nM for the first, 100 to 500 nM for the second. The second is the more potent here.

`CN1CCc2nc(OCCCN3CCCC3)ccc2C1` [Example 7, 6-Methyl-2-(3-pyrrolidin-1-ylpropoxy)-5,6,7,8-tetrahydro-1,6-naphthyridine] and `O=C1CCCC2c3ccc(OCCCN4CCCC4)nc3CCN12` (stereo not drawn) [Example 18, 3-(3-pyrrolidin-1-ylpropoxy)-5,6,9,10,11,11a-hexahydro-8H-pyrido[2,1-f][1,6]naphthyridin-8-one] cannot be ordered by IC50: under 100 nM for the first, under 100 nM for the second.

`CN1CCc2nc(O[C@@H]3CCN(C4CCCC4)C3)ccc2C1` [Example 3, 2-{[(3R)-1-Cyclopentylpyrrolidin-3-yl]oxy}-6-methyl-5,6,7,8-tetrahydro-1,6-naphthyridine] and `CN1CCc2nc(O[C@H]3CCN(C4CCCC4)C3)ccc2C1` [Example 4, 2-{[(3S)-1-Cyclopentylpyrrolidin-3-yl]oxy}-6-methyl-5,6,7,8-tetrahydro-1,6-naphthyridine] fall in the same range of IC50: 100 to 500 nM for the first, 100 to 500 nM for the second.

`O=C1CCCC2c3ccc(OCCN4CCCCC4)nc3CCN12` (stereo not drawn) [Example 24, 3-(2-piperidin-1-ylethoxy)-5,6,9,10,11,11a-hexahydro-8H-pyrido[2,1-f][1,6]naphthyridin-8-one] and `O=C1CCCC2c3ccc(OCCCN4CCOCC4)nc3CCN12` (stereo not drawn) [Example 20, 3-(3-morpholin-4-ylpropoxy)-5,6,9,10,11,11a-hexahydro-8H-pyrido[2,1-f][1,6]naphthyridin-8-one] fall in the same range of IC50: 500 to 5000 nM for the first, 500 to 5000 nM for the second.

`CC(C)N1CCC(Oc2nc3c(cc2C#N)CN(C)CC3)CC1` [Example 10, 6-Methyl-2-{[1-(1-methylethyl)piperidin-4-yl]oxy}-5,6,7,8-tetrahydro-1,6-naphthyridine-3-carbonitrile] and `CN1CCc2nc(OC3CCN(C4CC4)CC3)c(C#N)cc2C1` [Example 11, 2-[(1-Cyclopropylpiperidin-4-yl)oxy]-6-methyl-5,6,7,8-tetrahydro-1,6-naphthyridine-3-carbonitrile] cannot be ordered by IC50: under 100 nM for the first, under 100 nM for the second.

First: O=C1CCCC2c3ccc(O[C@H]4CCN(C5CCC5)C4)nc3CCN12 (mixture of isomers) [Example 17, 3-{[(3S)-1-cyclobutylpyrrolidin-3-yl]oxy}-5,6,9,10,11,11a-hexahydro-8H-pyrido[2,1-f][1,6]naphthyridin-8-one]
Second: O=C1CCCC2c3ccc(O[C@@H]4CCN(C5CCC5)C4)nc3CCN12 (mixture of isomers) [Example 16, 3-{[(3R)-1-cyclobutylpyrrolidin-3-yl]oxy}-5,6,9,10,11,11a-hexahydro-8H-pyrido[2,1-f][1,6]naphthyridin-8-one]
The IC50 of the first is higher: 500 to 5000 nM for the first, 100 to 500 nM for the second. The second is the more potent here.

`CN1CCc2nc(OC3CCN(C4CCC4)CC3)c(C#N)cc2C1` [Example 12, 2-[(1-Cyclobutylpiperidin-4-yl)oxy]-6-methyl-5,6,7,8-tetrahydro-1,6-naphthyridine-3-carbonitrile] and `CN1CCc2nc(OC3CCN(C4CCCC4)CC3)ccc2C1` [Example 2, 2-[(1-Cyclopentylpiperidin-4-yl)oxy]-6-methyl-5,6,7,8-tetrahydro-1,6-naphthyridine] cannot be ordered by IC50: under 100 nM for the first, under 100 nM for the second.

`O=C1CCCC2c3ccc(OC4CCN(C5CCC5)CC4)nc3CCN12` (stereo not drawn) [Example 14, 3-[(1-Cyclobutylpiperidin-4-yl)oxy]-5,6,9,10,11,11a-hexahydro-8H-pyrido[2,1-f][1,6]naphthyridin-8-one] and `O=C1CCCC2c3ccc(OC4CCN(C5CCCC5)CC4)nc3CCN12` (stereo not drawn) [Example 26, 3-[(1-Cyclopentylpiperidin-4-yl)oxy]-5,6,9,10,11,11a-hexahydro-8H-pyrido[2,1-f][1,6]naphthyridin-8-one] cannot be ordered by IC50: under 100 nM for the first, under 100 nM for the second.

First: CC(C)N1CCC(Oc2nc3c(cc2C#N)C2CCCC(=O)N2CC3)CC1 (stereo not drawn) [Example 30, 3-{[1-(1-methylethyl)piperidin-4-yl]oxy}-8-oxo-5,8,9,10,11,11a-hexahydro-6H-pyrido[2,1-f][1,6]naphthyridine-2-carbonitrile]
Second: CN1CCC(Oc2ccc3c(n2)CCN2C(=O)CCCC32)CC1 (stereo not drawn) [Example 23, 3-[(1-Methylpiperidin-4-yl)oxy]-5,6,9,10,11,11a-hexahydro-8H-pyrido[2,1-f][1,6]naphthyridin-8-one]
The IC50 of the first is lower: under 100 nM for the first, 500 to 5000 nM for the second. The first is the more potent here.

Compared with `O=C1CCCC2c3ccc(O[C@H]4CCN(C5CCCC5)C4)nc3CCN12` (stereo partly drawn) [Example 21, 3-{[(3S)-1-cyclopentylpyrrolidin-3-yl]oxy}-5,6,9,10,11,11a-hexahydro-8H-pyrido[2,1-f][1,6]naphthyridin-8-one], `O=C1CCCC2c3ccc(OC4CCN(C5CCCCC5)CC4)nc3CCN12` (stereo not drawn) [Example 22, 3-[(1-Cyclohexylpiperidin-4-yl)oxy]-5,6,9,10,11,11a-hexahydro-8H-pyrido[2,1-f][1,6]naphthyridin-8-one] is lower in IC50: 100 to 500 nM for the first, under 100 nM for the second.

`O=C1CCCC2c3ccc(OC4CCN(CC5CC5)CC4)nc3CCN12` (stereo not drawn) [Example 33, 3-{[1-(cyclopropylmethyl)piperidin-4-yl]oxy}-5,6,9,10,11,11a-hexahydro-8H-pyrido[2,1-f][1,6]naphthyridin-8-one] gave an IC50 of under 100 nM.
